Several values for one entry are separate records, joined by “and”; a condition that tells them apart may be missing. Identical values can stand only once.
System: WM3248 melanoma cells, 486 antibodies
Assay: Reverse phase protein arrays (RPPA)
Type: cell-based, Human
From the text: Pellets were snap frozen in liquid nitrogen and shipped to MD Anderson Cancer Center core RPPA facility for RPPA analysis (Table S5). Three biological replicates for each sample were generated.
Nomenclatures on the RPPA heatmaps: name_of_antibody.species_of_antibody.status_of_antibody. V - antibody validated; C - validation of antibody in progress; Q - antibody nonspecific; E – under evaluation; antibodies raised in M - mouse, G - goat, R - rabbit, or T - rat.

CN(C)c1cccc(Nc2cc(-c3ccccc3)nc(C3CCNCC3)n2)c1 [ARN22089, N1,N1-dimethyl-N3-(6-phenyl-2-(piperidin-4-yl)pyrimidin-4-yl)benzene-1,3-diamine]
CD31.M.V normalized signal (Norm_10 Average): 0.960
CD38.R.C normalized signal (Norm_10 Average): 0.936
CD45.M.V normalized signal (Norm_10 Average): 0.964
CD68.M.C normalized signal (Norm_10 Average): 1.001
CD134.R.V normalized signal (Norm_10 Average): 0.970
CD171.M.V normalized signal (Norm_10 Average): 0.831
CDK1_pT14.R.C normalized signal (Norm_10 Average): 0.888
CDK9.R.V normalized signal (Norm_10 Average): 0.988
CDKN2A.R.C normalized signal (Norm_10 Average): 0.963
CDT1.R.V normalized signal (Norm_10 Average): 0.925
CENP.A.R.V normalized signal (Norm_10 Average): 0.967
CHD1L.R.V normalized signal (Norm_10 Average): 1.025
COG3.R.V normalized signal (Norm_10 Average): 1.013
CRABP1.R.C normalized signal (Norm_10 Average): 0.993
CRABP2.R.V normalized signal (Norm_10 Average): 0.915
CSK.R.C normalized signal (Norm_10 Average): 0.971
Calnexin.R.V normalized signal (Norm_10 Average): 1.021
Caspase.3.cleaved.R.C normalized signal (Norm_10 Average): 0.926
Caspase.7.cleaved..R.C normalized signal (Norm_10 Average): 1.030
Caspase.8.M.Q normalized signal (Norm_10 Average): 0.998
Caspase.8.cleaved.R.C normalized signal (Norm_10 Average): 0.924
Cdc6.R.V normalized signal (Norm_10 Average): 0.962
Cdc42.R.C normalized signal (Norm_10 Average): 0.966
Chk1.M.C normalized signal (Norm_10 Average): 0.942
Chk1_pS296.R.V normalized signal (Norm_10 Average): 0.948
Chk1_pS345.R.C normalized signal (Norm_10 Average): 1.019
Chk2.M.V normalized signal (Norm_10 Average): 0.971
Chk2_pT68.R.C normalized signal (Norm_10 Average): 0.963
Claudin.7.R.V normalized signal (Norm_10 Average): 1.252
Collagen.VI.R.V normalized signal (Norm_10 Average): 1.085
Complex.II.Subunit.M.V normalized signal (Norm_10 Average): 1.079
Connexin.43.R.C normalized signal (Norm_10 Average): 1.004
Cox2.R.C normalized signal (Norm_10 Average): 1.057
Creb.R.C normalized signal (Norm_10 Average): 0.975
CtIP.R.V normalized signal (Norm_10 Average): 0.953
Cyclin.B1.R.V normalized signal (Norm_10 Average): 0.844
Cyclin.D1.R.C normalized signal (Norm_10 Average): 1.008
Cyclin.D3.M.V normalized signal (Norm_10 Average): 0.934
Cyclophilin.F.M.V normalized signal (Norm_10 Average): 0.980
DAPK1_pS308.M.C normalized signal (Norm_10 Average): 1.809
DAPK2.R.C normalized signal (Norm_10 Average): 0.982
DDB.1.R.V normalized signal (Norm_10 Average): 0.823
DDR1.R.V normalized signal (Norm_10 Average): 1.020
DDR1_pY513.R.C normalized signal (Norm_10 Average): 1.009
DJ1.R.V normalized signal (Norm_10 Average): 0.997
DM.Histone.H3.R.V normalized signal (Norm_10 Average): 0.900
DM.K9.Histone.H3.M.V normalized signal (Norm_10 Average): 0.982
DNA.Ligase.IV.R.C normalized signal (Norm_10 Average): 0.937
DNA_POLG.R.V normalized signal (Norm_10 Average): 1.080
c.Jun_pS73.R.V normalized signal (Norm_10 Average): 0.793
c.Kit.R.V normalized signal (Norm_10 Average): 1.213
c.Met_pY1234_Y1235.R.V normalized signal (Norm_10 Average): 0.933
c.Myc.R.C normalized signal (Norm_10 Average): 1.350
cdc2_pY15.R.C normalized signal (Norm_10 Average): 0.855
cdc25C.R.V normalized signal (Norm_10 Average): 0.849
C.Raf.R.C normalized signal (Norm_10 replicates): 1.081 and 0.699 and 0.805
C.Raf_pS338.R.V normalized signal (Norm_10 replicates): 0.823 and 0.996
CA9.R.C normalized signal (Norm_10 replicates): 0.873 and 0.916
CD2.M.C normalized signal (Norm_10 replicates): 0.952 and 0.983 and 0.955
CD4.R.V normalized signal (Norm_10 replicates): 0.995 and 0.882 and 0.915
CD5.M.C normalized signal (Norm_10 replicates): 0.953 and 1.022
CD20.R.C normalized signal (Norm_10 replicates): 0.859 and 1.349 and 1.680
CD26.R.V normalized signal (Norm_10 replicates): 0.886 and 0.919 and 1.217
CD29.M.V normalized signal (Norm_10 replicates): 0.978 and 0.970
CD31.M.V normalized signal (Norm_10 replicates): 0.934 and 1.028 and 0.917
CD38.R.C normalized signal (Norm_10 replicates): 1.013 and 0.750 and 1.046
CD44.R.C normalized signal (Norm_10 replicates): 0.886 and 1.140
CD45.M.V normalized signal (Norm_10 replicates): 0.989 and 0.991
CD49b.M.V normalized signal (Norm_10 replicates): 1.113 and 1.053
CD68.M.C normalized signal (Norm_10 replicates): 0.973 and 0.957
CD74.M.V normalized signal (Norm_10 replicates): 0.883 and 1.031 and 0.993
CD134.R.V normalized signal (Norm_10 replicates): 0.926 and 1.018 and 0.966
CD171.M.V normalized signal (Norm_10 replicates): 0.567 and 1.011 and 0.915
CDK1_pT14.R.C normalized signal (Norm_10 replicates): 0.950 and 0.703 and 1.011
CDK9.R.V normalized signal (Norm_10 replicates): 0.925 and 1.065 and 0.973
CDKN2A.R.C normalized signal (Norm_10 replicates): 0.890 and 1.007 and 0.992
CDT1.R.V normalized signal (Norm_10 replicates): 0.844 and 1.019
CENP.A.R.V normalized signal (Norm_10 replicates): 0.909 and 0.955
CHD1L.R.V normalized signal (Norm_10 replicates): 0.986 and 0.996
CIITA.R.C normalized signal (Norm_10 replicates): 0.878 and 1.138 and 1.266
COG3.R.V normalized signal (Norm_10 replicates): 1.048 and 1.011 and 0.981
CRABP1.R.C normalized signal (Norm_10 replicates): 0.873 and 1.131 and 0.976
CRABP2.R.V normalized signal (Norm_10 replicates): 0.772 and 1.150 and 0.822
CREB_pS133.R.C normalized signal (Norm_10 replicates): 1.250 and 0.794 and 1.214
CSK.R.C normalized signal (Norm_10 replicates): 0.836
Calnexin.R.V normalized signal (Norm_10 replicates): 0.966 and 1.158 and 0.937
Caspase.3.cleaved.R.C normalized signal (Norm_10 replicates): 1.008 and 0.891 and 0.879
Caspase.7.cleaved..R.C normalized signal (Norm_10 replicates): 0.971 and 1.258 and 0.862
Caspase.8.M.Q normalized signal (Norm_10 replicates): 0.852 and 1.055
Caspase.8.cleaved.R.C normalized signal (Norm_10 replicates): 0.985 and 0.881 and 0.907
Caveolin.1.R.V normalized signal (Norm_10 replicates): 0.713 and 1.122 and 1.012
Cdc6.R.V normalized signal (Norm_10 replicates): 0.858 and 0.962
Cdc42.R.C normalized signal (Norm_10 replicates): 0.895 and 1.029 and 0.973
Chk1.M.C normalized signal (Norm_10 replicates): 0.842 and 0.983 and 1.001
Chk1_pS296.R.V normalized signal (Norm_10 replicates): 1.115 and 0.789 and 0.942
Chk1_pS345.R.C normalized signal (Norm_10 replicates): 1.171 and 0.894 and 0.992
Chk2.M.V normalized signal (Norm_10 replicates): 0.819 and 1.005
Chk2_pT68.R.C normalized signal (Norm_10 replicates): 1.200 and 0.766 and 0.922
Claudin.7.R.V normalized signal (Norm_10 replicates): 0.930 and 1.663 and 1.163
Collagen.VI.R.V normalized signal (Norm_10 replicates): 1.420 and 0.935 and 0.899
Complex.II.Subunit.M.V normalized signal (Norm_10 replicates): 0.889 and 1.275
Connexin.43.R.C normalized signal (Norm_10 replicates): 1.260 and 0.815
Coup.TFII.R.C normalized signal (Norm_10 replicates): 0.934 and 0.868
Cox2.R.C normalized signal (Norm_10 replicates): 1.023 and 1.193 and 0.953
Cox.IV.R.V normalized signal (Norm_10 replicates): 0.958 and 0.990 and 0.892
Creb.R.C normalized signal (Norm_10 replicates): 1.051 and 0.927
CtIP.R.V normalized signal (Norm_10 replicates): 1.000 and 0.898 and 0.962
Cyclin.B1.R.V normalized signal (Norm_10 replicates): 0.661 and 0.815 and 1.055
Cyclin.D1.R.C normalized signal (Norm_10 replicates): 0.958 and 1.081 and 0.985
Cyclin.D3.M.V normalized signal (Norm_10 replicates): 0.818 and 0.939
Cyclin.E1.R.V normalized signal (Norm_10 replicates): 0.893
Cyclophilin.F.M.V normalized signal (Norm_10 replicates): 0.808 and 1.114 and 1.018
D.a.Tubulin.R.V normalized signal (Norm_10 replicates): 0.881 and 0.967 and 0.966
DAPK1_pS308.M.C normalized signal (Norm_10 replicates): 1.302 and 1.636 and 2.488
DAPK2.R.C normalized signal (Norm_10 replicates): 0.965 and 1.028 and 0.953
DDB.1.R.V normalized signal (Norm_10 replicates): 0.974 and 0.680 and 0.815
DDR1.R.V normalized signal (Norm_10 replicates): 1.019 and 1.079 and 0.961
DDR1_pY513.R.C normalized signal (Norm_10 replicates): 0.985 and 1.129 and 0.914
DJ1.R.V normalized signal (Norm_10 replicates): 0.990 and 1.026 and 0.974
DM.Histone.H3.R.V normalized signal (Norm_10 replicates): 0.928 and 0.824
DM.K9.Histone.H3.M.V normalized signal (Norm_10 replicates): 0.889 and 1.013
DNA.Ligase.IV.R.C normalized signal (Norm_10 replicates): 0.935 and 0.869 and 1.008
DNA_POLG.R.V normalized signal (Norm_10 replicates): 1.018 and 1.199 and 1.023
c.Jun_pS73.R.V normalized signal (Norm_10 replicates): 0.788 and 0.785 and 0.805
c.Kit.R.V normalized signal (Norm_10 replicates): 1.136 and 1.324
c.Met_pY1234_Y1235.R.V normalized signal (Norm_10 replicates): 0.975 and 0.946 and 0.879
c.Myc.R.C normalized signal (Norm_10 replicates): 2.093 and 1.046
cGAS.R.V normalized signal (Norm_10 replicates): 0.953 and 1.217 and 0.956
cdc2_pY15.R.C normalized signal (Norm_10 replicates): 1.104 and 0.582 and 0.878
cdc25C.R.V normalized signal (Norm_10 replicates): 0.721 and 0.808 and 1.017
MYH11.R.C Average (Norm_20, normalized to Norm_0): 1.248
Myosin.IIa.R.C Average (Norm_20, normalized to Norm_0): 1.147
Myosin.IIa_pS1943.R.V Average (Norm_20, normalized to Norm_0): 1.174
Myt1.R.C Average (Norm_20, normalized to Norm_0): 0.994
N.Cadherin.R.V Average (Norm_20, normalized to Norm_0): 0.988
N.Ras.M.V Average (Norm_20, normalized to Norm_0): 0.878
NAPSIN.A.R.C Average (Norm_20, normalized to Norm_0): 1.011
NDRG1_pT346.R.V Average (Norm_20, normalized to Norm_0): 1.336
NDUFB4.R.V Average (Norm_20, normalized to Norm_0): 1.022
NRF2.R.C Average (Norm_20, normalized to Norm_0): 0.907
Notch1.R.V Average (Norm_20, normalized to Norm_0): 0.937
Notch1.cleaved.R.V Average (Norm_20, normalized to Norm_0): 0.937
Notch3.R.C Average (Norm_20, normalized to Norm_0): 0.994
Oct.4.R.C Average (Norm_20, normalized to Norm_0): 1.121
P.Cadherin.R.C Average (Norm_20, normalized to Norm_0): 1.346
PAI.1.M.V Average (Norm_20, normalized to Norm_0): 0.985
PAICS.R.C Average (Norm_20, normalized to Norm_0): 0.928
PAK1.R.V Average (Norm_20, normalized to Norm_0): 0.872
PAK4.R.V Average (Norm_20, normalized to Norm_0): 0.993
PAK_pS474_S602_S560.R.V Average (Norm_20, normalized to Norm_0): 1.208
PAR.R.C Average (Norm_20, normalized to Norm_0): 2.108
PARG.R.C Average (Norm_20, normalized to Norm_0): 1.394
PARP.R.V Average (Norm_20, normalized to Norm_0): 1.133
PAX6.R.V Average (Norm_20, normalized to Norm_0): 0.967
PAX8.R.C Average (Norm_20, normalized to Norm_0): 0.941
PCNA.M.C Average (Norm_20, normalized to Norm_0): 0.869
PD.1.R.V Average (Norm_20, normalized to Norm_0): 0.984
PD.L1.R.C Average (Norm_20, normalized to Norm_0): 0.970
PDH.M.V Average (Norm_20, normalized to Norm_0): 0.925
PDHA1.R.V Average (Norm_20, normalized to Norm_0): 0.956
PDHK1.R.C Average (Norm_20, normalized to Norm_0): 0.952
PDK1.R.V Average (Norm_20, normalized to Norm_0): 1.116
PDK1_pS241.R.V Average (Norm_20, normalized to Norm_0): 0.965

— article PMC9127750, “Structure-based design of CDC42 effector interaction inhibitors for the treatment of cancer” (Cell reports, 2022)
